The text below walks through data of US20210395239A1 (Hoffmann-La Roche Inc., priority 2018, published 2021).

This assay addresses T1, hTLR9 (Homo sapiens, UniProt Q9NR96).
T1 sequence (Q9NR96 26-1032): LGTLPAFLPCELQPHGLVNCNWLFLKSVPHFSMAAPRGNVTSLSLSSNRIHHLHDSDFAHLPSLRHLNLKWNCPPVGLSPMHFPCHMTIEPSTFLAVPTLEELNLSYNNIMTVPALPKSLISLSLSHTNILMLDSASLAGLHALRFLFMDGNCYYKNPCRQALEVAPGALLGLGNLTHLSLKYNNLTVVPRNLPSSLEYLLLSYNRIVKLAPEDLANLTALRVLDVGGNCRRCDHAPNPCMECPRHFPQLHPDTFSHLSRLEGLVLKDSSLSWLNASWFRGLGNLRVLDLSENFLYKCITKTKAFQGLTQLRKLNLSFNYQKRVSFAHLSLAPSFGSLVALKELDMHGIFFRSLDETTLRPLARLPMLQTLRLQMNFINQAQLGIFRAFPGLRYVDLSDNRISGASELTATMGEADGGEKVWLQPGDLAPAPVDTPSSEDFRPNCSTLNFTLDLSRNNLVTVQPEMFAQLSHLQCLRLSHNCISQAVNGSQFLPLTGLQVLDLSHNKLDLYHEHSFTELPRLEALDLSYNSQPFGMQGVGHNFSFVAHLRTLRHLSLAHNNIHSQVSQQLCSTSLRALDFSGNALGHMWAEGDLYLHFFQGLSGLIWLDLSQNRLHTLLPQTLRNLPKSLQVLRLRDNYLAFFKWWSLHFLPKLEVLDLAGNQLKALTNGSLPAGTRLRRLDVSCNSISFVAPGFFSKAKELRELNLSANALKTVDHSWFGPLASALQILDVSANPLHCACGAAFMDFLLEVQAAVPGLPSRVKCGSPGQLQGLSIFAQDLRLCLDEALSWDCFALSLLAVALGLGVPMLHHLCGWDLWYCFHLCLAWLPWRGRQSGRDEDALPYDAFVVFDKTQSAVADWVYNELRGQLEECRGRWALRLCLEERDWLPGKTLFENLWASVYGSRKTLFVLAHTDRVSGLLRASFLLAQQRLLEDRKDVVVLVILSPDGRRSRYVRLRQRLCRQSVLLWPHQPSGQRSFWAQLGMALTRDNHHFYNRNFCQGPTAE
The experiment in a line: HEK293-Blue-hTLR-9 cells assay (SEAP reporter, ODN2006 stimulation). The conditions noted are these: HEK293-Blue-hTLR9 cells, ODN2006, 20 hrs; read-out: HEK/hTLR9 IC50. Set-up: host or cells: HEK293 (HEK-Blue hTLR9). Format: cell-based. The source says:
HEK293-Blue-hTLR-9 Cells Assay:
A stable HEK293-Blue-hTLR-9 cell line was purchased from InvivoGen (Cat. #: hkb-htlr9, San Diego, Calif., USA). These cells were originally designed for studying the stimulation of human TLR9 by monitoring the activation of NF-κB. A SEAP (secreted embryonic alkaline phosphatase) reporter gene was placed under the control of the IFN-β minimal promoter fused to five NF-κB and AP-1-binding sites. The SEAP was induced by activating NF-κB and AP-1 via stimulating HEK-Blue hTLR9 cells with TLR9 ligands. Therefore the reporter expression was declined by TLR9 antagonist under the stimulation of a ligand, such as ODN2006 (Cat. #: tlrl-2006-1, Invivogen, San Diego, Calif., USA), for incubation of 20 hrs. The cell culture supernatant SEAP reporter activity was determined using QUANTI-Blue™ kit (Cat. #: rep-qb1, Invivogen, San Diego, Calif., USA) at a wavelength of 640 nm, a detection medium that turns purple or blue in the presence of alkaline phosphatase.
HEK293-Blue-hTLR9 cells were incubated at a density of 250,000˜450,000 cells/mL in a volume of 170 μL in a 96-well plate in Dulbecco's Modified Eagle's medium (DMEM) containing 4.5 g/L glucose, 50 U/mL penicillin, […], 2 mM L-glutamine, 10% (v/v) heat-inactivated fetal bovine serum with addition of 20 μL test compound in a serial dilution in the presence of final DMSO at 1% and 10 μL of 20 uM ODN2006 in above DMEM, perform incubation under 37° C. in a CO2 incubator for 20 hrs. Then 20 μL of the supernatant from each well was incubated with 180 μL Quanti-blue substrate solution at 37° C. for 2 h and the absorbance was read at 620-655 nm using a spectrophotometer. The signaling pathway that TLR9 activation leads to downstream NF-κB activation has been widely accepted, and therefore similar reporter assay was modified for evaluating TLR9 antagonist.
For `[2H]c1ccc2c(N3C[C@H](CN4CCN(c5ccc(N[C@H]6CNC[C@H]6F)nc5)CC4)O[C@H](C)C3)ccc(C#N)c2n1` [Example 162, 2-deuterio-5-[(2S,6R)-2-[[4-[6-[[(3S,4R)-4-fluoropyrrolidin-3-yl]amino]-3-pyridyl]piperazin-1-yl]methyl]-6-methyl-morpholin-4-yl]quinoline-8-carbonitrile], the IC50 was found to be 36 nM. In the case of `[2H]c1ccc2c(N3C[C@H](CN4CC(c5cnc(N6CC(C)(N)C6)cc5C)C4)O[C@H](C)C3)ccc(C#N)c2n1` [Example 145, 5-[(2S,6R)-2-[[3-[6-(3-amino-3-methyl-azetidin-1-yl)-4-methyl-3-pyridyl]azetidin-1-yl]methyl]-6-methyl-morpholin-4-yl]-2-deuterio-quinoline-8-carbonitrile] it was 31 nM; in that of `C[C@@H]1CN(c2ccc(C#N)c3nccnc23)C[C@H](CN2CCN(c3nccc(N4CC(N)C4)n3)CC2)O1` [Example 118, 8-[(2S,6R)-2-[[4-[4-(3-aminoazetidin-1-yl)pyrimidin-2-yl]piperazin-1-yl]methyl]-6-methyl-morpholin-4-yl]quinoxaline-5-carbonitrile], 51 nM.

Regarding `C[C@@H]1CN(c2ccc(C#N)c3nccnc23)C[C@H](CN2CCN(c3ccnc(N4CC[C@@H](N)[C@H](F)C4)n3)CC2)O1` [Example 113, 8-[(2S,6R)-2-[[4-[2-[(3R,4R)-4-amino-3-fluoro-1-piperidyl]pyrimidin-4-yl]piperazin-1-yl]methyl]-6-methyl-morpholin-4-yl]quinoxaline-5-carbonitrile], the IC50 stood at 98 nM.

As for `[2H]c1ccc2c(N3C[C@H](CN4CC(c5ccc(N6CC(C)(N)C6)nc5)C4)O[C@H](C)C3)ccc(C#N)c2n1` [Example 138, 5-[(2S,6R)-2-[[3-[6-(3-amino-3-methyl-azetidin-1-yl)-3-pyridyl]azetidin-1-yl]methyl]-6-methyl-morpholin-4-yl]-2-deuterio-quinoline-8-carbonitrile], the IC50 was 40 nM. Consider `CO[C@H]1CN(c2ccnc(N3CCN(C[C@H]4CN(c5ccc(C#N)c6ncccc56)C[C@@H](C)O4)CC3)n2)C[C@@H]1N` [Example 97, 5-[(2S,6R)-2-[[4-[4-[(3S,4S)-3-amino-4-methoxy-pyrrolidin-1-yl]pyrimidin-2-yl]piperazin-1-yl]methyl]-6-methyl-morpholin-4-yl]quinoline-8-carbonitrile], for which the IC50 was 34 nM. On to `Cc1cc(N2C[C@@H](N)[C@@H](F)C2)nc(N2CCN(C[C@H]3CN(c4ccc(C#N)c5nccnc45)C[C@@H](C)O3)CC2)n1` [Example 115, 8-[(2S,6R)-2-[[4-[4-[(3R,4S)-3-amino-4-fluoro-pyrrolidin-1-yl]-6-methyl-pyrimidin-2-yl]piperazin-1-yl]methyl]-6-methyl-morpholin-4-yl]quinoxaline-5-carbonitrile], for which the IC50 is 38 nM.

As to `C[C@@H]1CN(c2ccc(C#N)n3nccc23)C[C@H](CN2CC(c3ccc(N4CC(C)(N)C4)nc3)C2)O1` [Example 157, 4-[(2S,6R)-2-[[3-[6-(3-amino-3-methyl-azetidin-1-yl)-3-pyridyl]azetidin-1-yl]methyl]-6-methyl-morpholin-4-yl]pyrazolo[1,5-a]pyridine-7-carbonitrile], the IC50 is 31 nM. For `[2H]c1ccc2c(N3C[C@H](CN4CCN(c5ccc(N6C[C@@H](N)[C@H](OC)C6)nc5)CC4)O[C@H](C)C3)ccc(C#N)c2n1` [Example 143, 5-[(2S,6R)-2-[[4-[6-[(3R,4R)-3-amino-4-methoxy-pyrrolidin-1-yl]-3-pyridyl]piperazin-1-yl]methyl]-6-methyl-morpholin-4-yl]-2-deuterio-quinoline-8-carbonitrile], the IC50 stood at 47 nM.

As to `CO[C@H]1CN(c2cc(C)nc(N3CCN(C[C@H]4CN(c5ccc(C#N)c6nccnc56)C[C@@H](C)O4)CC3)n2)C[C@@H]1N` [Example 104, 8-[(2S,6R)-2-[[4-[4-[(3S,4S)-3-amino-4-methoxy-pyrrolidin-1-yl]-6-methyl-pyrimidin-2-yl]piperazin-1-yl]methyl]-6-methyl-morpholin-4-yl]quinoxaline-5-carbonitrile], the IC50 came to 70 nM.
